Experimental data from patent US20030232102A1, “Total glycosides of paeony, method to prepare the same and uses thereof” (priority 2001, published 2003).

System: patients with rheumatoid arthritis
Test: Phase II clinical study: laboratory tests and immune system perimeters
Type: in vivo, human
Design: ESR / CRP / RF / Ig A / Ig G / Laboratory blood tests: Hg / Laboratory blood tests: WBC / Laboratory blood tests: BP / Laboratory blood tests: Cr / Laboratory blood tests: BUN: unit not given here
Conditions: for Laboratory blood tests: Hg / Laboratory blood tests: WBC / Laboratory blood tests: BP / Laboratory blood tests: BUN / Laboratory blood tests: Cr / Laboratory blood tests: GPT: overall group
Source text: It was a multiple-centered, randomized, parallel, positive controlled Phrase II clinical study.
10) Routine blood and urine exam: Hemoglobin, platelet count, biochemical serum test and routine urine test
11) Blood Sedimentation (Norm. M: 15 mm/hr F: 20 mm/hr)
12) Serum Rheumatoid Factor (Method: Latex Agglutination Test, LAT): The maximum titer value were required for positive reaction patients. All centers use the same standard agents in one product batch.
13) C-reactive protein (quantitative method): All centers use the same standard agents in one product batch.

[1] = 4 weeks (row order of Table 65)
[2] = 8 weeks (row order of Table 65)
[3] = 12 weeks (row order of Table 65)
[4] = 24 weeks (row order of Table 65)
[5] = 4 weeks (row order of Table 67)
[6] = 8 weeks (row order of Table 67)
[7] = 12 weeks (row order of Table 67)
[8] = 24 weeks (row order of Table 67)
[9] = period of treatment 0 (row order of Table 67)
[10] = period of treatment 0 (row order of Table 65)

CN(Cc1cnc2nc(N)nc(N)c2n1)c1ccc(C(=O)N[C@@H](CCC(=O)O)C(=O)O)cc1 [MTX, Methotrexate]
CRP (4 weeks): 27.97 ± 21.12 | ESR (4 weeks): 42.11 ± 38.68 | Ig A [1]: 3.64 ± 3.54 | Ig G [1]: 17.40 ± 6.59 | RF [1]: 1.87 ± 0.62 | CRP (8 weeks): 25.72 ± 19.42 | ESR (8 weeks): 44.92 ± 78.36 | Ig A [2]: 3.98 ± 3.56 | Ig G [2]: 17.62 ± 6.37 | Ig M [2]: 2.76 ± 2.24 | RF [2]: 1.59 ± 0.61 | CRP (12 weeks): 22.31 ± 18.91 | ESR (12 weeks): 29.96 ± 20.48 | Ig A [3]: 3.39 ± 3.15 | Ig G [3]: 16.47 ± 5.92 | RF [3]: 1.72 ± 0.56 | CRP (24 weeks): 27.12 ± 22.39 | ESR (24 weeks): 28.66 ± 20.96 | Ig A [4]: 2.35 ± 1.55 | Ig G [4]: 15.26 ± 6.37 | Ig M [4]: 1.57 ± 0.79 | RF [4]: 1.74 ± 0.63 | Laboratory blood tests: Hg (4 weeks): 10.96 ± 3.65 | Laboratory blood tests: WBC (4 weeks): 7.47 ± 2.09 | Laboratory blood tests: BP [5]: 94.28 ± 31.42 | Laboratory blood tests: BUN [5]: 3.32 ± 1.11 | Laboratory blood tests: Cr [5]: 82.82 ± 27.64 | Laboratory blood tests: GPT [5]: Norm. | Laboratory blood tests: Hg (8 weeks): 9.26 ± 3.09 | Laboratory blood tests: WBC (8 weeks): 8.47 ± 2.82 | Laboratory blood tests: BP [6]: 108.73 ± 36.21 | Laboratory blood tests: BUN [6]: 1.97 ± 0.65 | Laboratory blood tests: Cr [6]: 98.89 ± 32.93 | Laboratory blood tests: GPT [6]: Norm. | Laboratory blood tests: Hg (12 weeks): 9.24 ± 2.98 | Laboratory blood tests: WBC (12 weeks): 8.42 ± 2.57 | Laboratory blood tests: BP [7]: 110.66 ± 37.48 | Laboratory blood tests: BUN [7]: 1.82 ± 0.47 | Laboratory blood tests: Cr [7]: 102.03 ± 36.86 | Laboratory blood tests: GPT [7]: Norm. | Laboratory blood tests: Hg (24 weeks): 10.78 ± 3.10 | Laboratory blood tests: WBC (24 weeks): 7.28 ± 2.67 | Laboratory blood tests: BP [8]: 168.48 ± 30.78 | Laboratory blood tests: BUN [8]: 3.38 ± 1.01 | Laboratory blood tests: Cr [8]: 78.66 ± 26.42 | Laboratory blood tests: GPT [8]: Norm. | Laboratory blood tests: Hg (period of treatment 0): 11.28 ± 3.72 | Laboratory blood tests: WBC (period of treatment 0): 7.96 ± 2.61 | Laboratory blood tests: BP [9]: 98.97 ± 32.86 | Laboratory blood tests: BUN [9]: 3.96 ± 1.32 | Laboratory blood tests: Cr [9]: 74.86 ± 28.28 | Laboratory blood tests: GPT [9]: Norm. | CRP (period of treatment 0): 32.01 ± 22.75 | ESR (period of treatment 0): 47.11 ± 26.19 | Ig A [10]: 3.62 ± 3.42 | Ig G [10]: 18.13 ± 7.12 | RF [10]: 1.93 ± 0.61
